Reference: article PMC7180839, “Biophysical Screens Identify Fragments That Bind to the Viral DNA-Binding Proteins EBNA1 and LANA” (Molecules, 2020)

Columns and labels:
EBNA1 (468–607) = target: T1, EBNA1 (468–607) (Epstein-Barr virus, UniProt P03211); test: X-ray crystallography, fragment soaked into preformed EBNA1 crystals; format: binding, Epstein–Barr virus (EBV); details: crystal soak 4 h; 1.3 Å structure, PDB 6VH6; pocket that contacts the DNA phosphate backbone
T1 construct: using purified EBNA1 (468–607) mixed in a 2 μl:2 μl ratio with reservoir solution; made in house
Source text: We determined the high-resolution crystal structure of one fragment bound to EBNA1 (Figure 4). We soaked the fragment AC37287 into preformed crystals of EBNA1 (468–607). The crystal of AC37287 diffracted to 1.3 Ångstroms and was solved by isomorphous replacement. The electron density around AC38287 is unambiguous at this resolution (Figure 4A). The aliphatic portion of AC37287 binds into a deep hydrophobic pocket made up of the hydrophobic residues I481, L520, L582, V483 and I593 (Figure 4B). The lactone is sandwiched between residues N519 and T590 within the range of a hydrogen bond of N519 (Figure 4C). This molecule binds in a region that is important for DNA binding (Figure 4D).
Crystals were grown using the vapor diffusion method in 24–48 h using purified EBNA1 (468–607) mixed in a 2 μl:2 μl ratio with reservoir solution (50 mM MES, pH 6.5, 0–150 mM NaCl, and 10 mM DTT). Crystals were transferred to a solution containing 25–30% glycerol and 0.2 μl of 50 mM of AC37287, incubated for 4 h and flash frozen for data collection. Data were collected on the 21BM beamline at the Argonne Light Source (ALS) at Argonne National Laboratory. Data were indexed, reduced, and scaled using HKL3000. The structures were solved by isomorphous replacement. Models were refined in PHENIX, version 1.17, using simulated annealing, minimization, and individual B-factor refinement. […]

[1] = target: T2, EBNA1-CAC (EBNA1 DNA-binding domain) (Epstein-Barr virus, UniProt P03211, C531S/C560S/C591S/C598S); test: SPR affinity assay, EBNA1-CAC immobilized on CM5 chip via thiol coupling; set-up: species or system Epstein–Barr virus (EBV); details: Biacore S200, 1:1 interaction model, global Rmax, fragment 79-900 μM, 5% DMSO, pH 7.1
T2 construct: His-tag-SUMO (N, cleaved yes); made in house; host or cells: Escherichia coli
T2 sequence (P03211 459-607 C531S/C560S/C591S/C598S): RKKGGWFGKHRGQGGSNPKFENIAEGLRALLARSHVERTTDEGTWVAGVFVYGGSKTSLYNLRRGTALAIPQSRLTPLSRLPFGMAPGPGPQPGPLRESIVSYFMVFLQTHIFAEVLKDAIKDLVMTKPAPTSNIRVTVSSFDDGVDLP
Description: SPR experiments were performed on a Biacore™ S200 instrument (GE Healthcare). […] As an alternative, we developed a thiol coupling method to immobilize EBNA1 and LANA to the Biacore sensor chip. We synthesized a construct that expressed a version of EBNA1 and LANA DNA-binding domains with the internal cysteines mutated to serine and Cys-Ala-Cys added to the C terminus (EBNA1-CAC and LANA-CAC).
The 1000 fragments from the library were screened at a concentration of 1 mM (5% DMSO). Hits were selected on the basis of the following criteria: a relative binding response normalized with respect to the positive control, no indication that multiple fragments were bound, R > Rmax (R = Response units, Rmax = the maximum binding capacity based on control fragment) and sensorgram shapes consistent with fragment binding (rapid on and off rates). Based on these criteria, 94 EBNA1 fragments and 104 LANA fragments were selected for further validation to measure binding affinities, which were determined to range from 0.2 to >10 mM. […]
To validate fragments from the primary screen, an affinity assay was performed. […] Binding sensorgrams were processed by first subtracting the binding response recorded from the control surface (reference flow cell), followed by solvent correction. […] Affinities were assessed using a global Rmax determined by reference compounds. […]

T1 sequence (P03211 468-607): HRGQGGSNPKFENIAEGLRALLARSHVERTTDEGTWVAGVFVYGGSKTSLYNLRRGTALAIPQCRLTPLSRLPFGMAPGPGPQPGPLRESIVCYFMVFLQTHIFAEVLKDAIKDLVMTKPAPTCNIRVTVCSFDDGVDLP

Row | SMILES | fragment binding observed in crystal structure (EBNA1 (468–607)) | Kd [1]
1 | Cc1ccc2oc(=O)cc(O)c2c1 [AC37287] | binds in this pocket of EBNA1 | –
2 | OCCCCn1cnc2cc(Cl)c(Cl)cc21 [SPB07625] | – | 2100 µM
